“And” between values parts separate entries of the source, which are not always exact repeats. Equal values may be shown once.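 Assay format: 96-well plates, 48-hour exposure. At the GI50, growth is halved. Definition used: TGI = concentration required for complete inhibition of growth.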
Key:
Assay in all cases: inhibition of tumour cell growth, NCI panel, 48 h
OVCAR-3 ovarian = test system: OVCAR-3 ovarian
SK-OV-3 ovarian = test system: SK-OV-3 ovarian
M14 melanoma = test system: M14 melanoma
786-0 renal = test system: 786-0 renal
SW-620 colon = test system: SW-620 colon
CAKI-1 renal = test system: CAKI-1 renal
U251 CNS = test system: U251 CNS
SR leukemia = test system: SR leukemia
NCI/ADR-RES ovarian = test system: NCI/ADR-RES ovarian
NCI-H522 lung = test system: NCI-H522 lung

Row | SMILES | TGI (OVCAR-3 ovarian) [µM] | TGI (SK-OV-3 ovarian) | TGI (M14 melanoma) [µM] | TGI (786-0 renal) | TGI (SW-620 colon) [µM] | TGI (CAKI-1 renal) [µM] | TGI (U251 CNS) | TGI (SR leukemia) | TGI (NCI/ADR-RES ovarian) | TGI (NCI-H522 lung) | GI50 (OVCAR-3 ovarian) | GI50 (M14 melanoma) [µM] | GI50 (786-0 renal) | GI50 (SW-620 colon) | GI50 (CAKI-1 renal) | GI50 (U251 CNS) | GI50 (SR leukemia) | GI50 (NCI/ADR-RES ovarian) | GI50 (NCI-H522 lung) | GI50 (SK-OV-3 ovarian)
1 | CC(=O)C1=C(O)/C(=C\c2ccco2)OC1=O | > 10 | > 10 µM | > 10 | > 10 µM | > 10 | > 10 | > 10 µM | > 10 µM | > 10 µM | > 10 µM | – | – | – | – | – | – | – | – | – | –
2 | O=C(Nc1ccccc1)Nc1ccccc1CNc1nc(Nc2ccc(OCCN3CCCC3)cc2)ncc1Cl | 2.36 | – | 9.79 | 2.78 µM | 12.7 | 12.4 | 13.7 µM | > 50 µM | 28.2 µM | 18.8 µM | 1.09 µM | 2.51 | 1.11 µM | 4.67 µM | 6.1 µM | 1.93 µM | 1.91 µM | 8.79 µM | 5.3 µM | –
3 | CCCCCCN(CCCCCC)CC(O)c1cccc2ccc(Cl)cc12 (stereo unspecified) | 26 | 23.4 µM | 22 | 23.7 µM | 15 | 14.7 | 23.5 µM | 9.85 µM | 25.1 µM | 23 µM | 13 µM | 9.48 | 10.9 µM | 3.82 µM | 2.64 µM | 10.5 µM | 3.55 µM | 11.4 µM | 7.94 µM | 11.3 µM
4 | C=C(C)[C@]12CC(C)C34OC(/C=C\C=C\CCCCCCCCC)(O[C@@H]1[C@@H]3[C@@H]1O[C@]1(CO)[C@@H](O)[C@]1(O)C(=O)C(C)=C[C@@H]41)O2 (stereo partly specified) | 16.3 | 35.1 µM | 27.4 | 21.5 µM | – | – | 49.9 µM | 15.8 µM | 45.2 µM | 30.7 µM | – | – | – | – | – | – | – | – | – | –
5 | CC(C)(C)NCCC(O)c1cc(C(F)(F)F)nc2c(C(F)(F)F)cccc12 (stereo unspecified) | 20.4 | 30.3 µM | 19.4 | 19.6 µM | > 52.6 | 9.97 | 20.2 µM | 13.5 µM | 15.2 µM | 25.1 µM | – | – | – | – | – | – | – | – | – | –
6 | COc1cc(OC)cc(N2CCN(C(=O)Nc3nc4cc(F)ccc4nc3OC)CC2)c1 | – | > 47.8 µM and 17.1 µM | – | 31 µM and 22.1 µM | > 100 | > 100 | 27.3 µM and 20.2 µM | 20.2 µM and 24.8 µM | 45 µM and 28.8 µM | 0.534 µM and 0.581 µM and 0.146 µM | 0.0232 µM and 0.0252 µM and 0.0219 µM | – | 0.0487 µM and 0.046 µM and 0.0362 µM | 0.0283 µM and 0.0372 µM and 0.0395 µM | 0.0401 µM and 0.034 µM | 0.0356 µM and 0.0448 µM and 0.0428 µM | < 0.018 µM and 0.0415 µM and 0.0268 µM | < 0.0148 µM and 0.0274 µM and 0.012 µM | 0.012 µM and 0.0225 µM | 0.0406 µM and 0.0838 µM and 0.033 µM
7 | CCCCCCN1C(=O)CN=C1Nc1ccc2cc3ccc(NC4=NCC(=O)N4CCCCCC)cc3nc2c1 | 3.08 | 28.9 µM | 4.84 | 2.95 µM | 3.7 | – | 3.13 µM | 4.22 µM | 15 µM | 3.91 µM | 1.36 µM | 1.95 | 1.56 µM | 1.84 µM | – | 1.63 µM | 1.53 µM | 3.32 µM | 1.79 µM | 11.6 µM
8 | Cc1csc(Nc2nc(-c3cccc(Cl)c3)nc(C(Cl)(Cl)Cl)n2)n1 | 3.53 | > 33.3 µM | > 33.3 | > 33.3 µM | > 33.3 | > 33.3 | 19.9 µM | > 33.3 µM | > 33.3 µM | > 33.3 µM | 1.06 µM | > 33.3 | 11 µM | 2.21 µM | 3.07 µM | 1.4 µM | 16.8 µM | 4.15 µM | > 33.3 µM | 8.69 µM
